Test results reported in article PMC7115507 (European Journal of Medicinal Chemistry, 2019).
Entries after “also recorded” stand apart in the source; their conditions may differ. Read-outs that look alike come from different tables or passages of the source.

Experiments:
HSV-1 = conditions: cited from earlier work
HSV-2 = conditions: cited from earlier work
CHIKV [1] = format: cell-based, Chikungunya virus
CHIKV [2] = conditions: cited from earlier work
SARS-CoV [3] = conditions: cited from earlier work
MERS-CoV [4] = conditions: cited from earlier work
ZIKV [5] = conditions: cited from earlier work
SAH hydrolase = SAH hydrolase (Homo sapiens, UniProt P23526); format: biochemical
Vero E6 cells = assay: Cytotoxicity; conditions: highest dose tested
SARS-CoV [6] = format: cell-based, severe acute respiratory syndrome coronavirus
MERS-CoV [7] = format: cell-based, Middle East respiratory syndrome coronavirus
ZIKV [8] = format: cell-based, Zika virus

Chain of SAH hydrolase (P23526 whole entry): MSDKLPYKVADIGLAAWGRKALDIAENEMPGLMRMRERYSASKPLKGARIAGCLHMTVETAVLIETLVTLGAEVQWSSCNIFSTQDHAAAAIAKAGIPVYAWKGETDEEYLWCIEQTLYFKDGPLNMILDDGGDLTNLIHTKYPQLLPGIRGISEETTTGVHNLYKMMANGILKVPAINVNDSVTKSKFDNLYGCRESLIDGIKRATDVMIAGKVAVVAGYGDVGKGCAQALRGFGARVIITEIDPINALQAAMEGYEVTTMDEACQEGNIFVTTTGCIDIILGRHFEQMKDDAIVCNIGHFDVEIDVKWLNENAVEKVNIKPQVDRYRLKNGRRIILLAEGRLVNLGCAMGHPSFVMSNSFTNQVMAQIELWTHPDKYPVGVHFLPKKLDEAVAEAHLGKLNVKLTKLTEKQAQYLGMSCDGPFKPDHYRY

For `Nc1ncnc2c1ncn2C1CC(CCO)C(O)C1O` (single isomer, unassigned; (-)) [(−)-homoaristeromycin], the “activity against HSV-1 (in words)” value (HSV-1) is given as “inactive” and the “activity against HSV-2 (in words)” value (HSV-2) is given as “inactive”.

With `Nc1ncnc2c1ncn2[C@H]1[C@H](O)[C@H](O)[C@@H](CO)[C@H]1F` [Compound 2a, 6′-β-fluoro-aristeromycin] the “antiviral activity against CHIKV (in words)” value (CHIKV [1]) was “inactive”.

In the case of `Nc1ncnc2c1ncn2[C@H]1[C@H](O)[C@H](O)[C@@H](CO)C1(F)F` [Compound 2b, 6,6′-difluoro-aristeromycin], the “antiviral activity against CHIKV (in words)” value (CHIKV [2]) is given as “broad-spectrum antiviral activity”, the “antiviral activity against CHIKV (in words)” value (CHIKV [2]; listed as 2) is given as “potent antiviral activities” and the “antiviral activity against SARS-CoV (in words)” value (SARS-CoV [3]) is given as “broad-spectrum antiviral activity; also recorded: potent antiviral activities”. For the same compound, the “antiviral activity against MERS-CoV (in words)” value (MERS-CoV [4]) was “broad-spectrum antiviral activity; also recorded: potent antiviral activities”, the “antiviral activity against ZIKV (in words)” value (ZIKV [5]) was “broad-spectrum antiviral activity” and the “antiviral activity against ZIKV (in words)” value (ZIKV [5]; listed as 2) was “potent antiviral activities”.

For `Nc1ncnc2c1ncn2[C@H]1[C@H](O)[C@H](O)[C@@H](CCO)[C@H]1F` [Compound 3a, (1R,2S,3S,4R,5R)-3-(6-Amino-9H-purin-9-yl)-4-fluoro-5-(2-hydroxyethyl)cyclopentane-1,2-diol], the “potency towards SAH hydrolase relative to 3d” value (SAH hydrolase) was 5.6 times, the “selectivity index (SI)” value (CHIKV [1]) was “more than 2083” and the “concentration up to which no noticeable cytotoxicity was seen” value (Vero E6 cells) was over 250 µM.

For `OCC[C@@H]1[C@@H](O)[C@@H](O)[C@H](n2cnc3c(O)ncnc32)[C@@H]1F` [Compound 3c, 9-((1S,2R,3R,4R,5S)-2-fluoro-4,5-dihydroxy-3-(2-hydroxyethyl)cyclopentyl)-1,9-dihydro-6H-purin-6-one], the “inhibition of SAH hydrolase at the highest dose tested (in words)” value (SAH hydrolase) was “no inhibitory activity was observed”.

With `Nc1ncnc2c1ncn2[C@H]1[C@H](O)[C@H](O)[C@@H](CCO)C1(F)F` [Compound 3d] the “antiviral activity against CHIKV (in words)” value (CHIKV [1]) was “did not exhibit antiviral activity”, the “antiviral activity against SARS-CoV (in words)” value (SARS-CoV [6]) was “did not exhibit antiviral activity” and the “antiviral activity against MERS-CoV (in words)” value (MERS-CoV [7]) was “did not exhibit antiviral activity”. For the same compound, the “antiviral activity against ZIKV (in words)” value (ZIKV [8]) was “did not exhibit antiviral activity”.
